Several values for one entry are separate records, joined by “and”; a condition that tells them apart may be missing. Equal values may be shown once. Toxic doses and inconclusive results are not listed. Rule for the calls: active = survival T/C of 150% or more; inactive = T/C below 125% in these data.
System: P388 leukemia ip, CD2F1 mice, survival T/C
Assay: NCI In Vivo Anticancer Drug Screen. Data for tumor model P388 Leukemia (intraperitoneal) in CD2F1 (CDF1) mice
Settings: endpoint: median survival time, higher = longer survival
Outline: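 Mice carrying the transplanted tumor received test compound or vehicle. Survival was recorded in each group, and the value is the treated-group measurement divided by that of the vehicle-treated control group.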

[1] = dose: 50.0 mg/kg/injection, schedule: Q01DX005 (ip), vehicle: Klucel (hydroxypropylcellulose) (HPC)
[2] = dose: 100.0 mg/kg/injection, schedule: Q01DX005 (ip), vehicle: Klucel (hydroxypropylcellulose) (HPC)
[3] = dose: 200.0 mg/kg/injection, schedule: Q01DX005 (ip), vehicle: Klucel (hydroxypropylcellulose) (HPC)
[4] = dose: 50.0 mg/kg/injection, schedule: Q01DX005 (ip), vehicle: saline with Tween-80
[5] = dose: 100.0 mg/kg/injection, schedule: Q01DX005 (ip), vehicle: saline with Tween-80
[6] = dose: 200.0 mg/kg/injection, schedule: Q01DX005 (ip), vehicle: saline with Tween-80
[7] = dose: 200.0 mg/kg/injection, schedule: Q01DX009 (ip), vehicle: saline with Tween-80
[8] = dose: 50.0 mg/kg/injection, schedule: Q01DX009 (ip), vehicle: saline with Tween-80
[9] = dose: 100.0 mg/kg/injection, schedule: Q01DX009 (ip), vehicle: saline with Tween-80

Measured: T/C

COc1ccc2c(=O)cc(-c3ccc4ccccc4n3)oc2c1OC
inactive: [1] 98 % of control | [2] 95 % of control | [3] 90 % of control

O=C(O)c1cc2cccc(OCc3ccc(Cl)cc3Cl)c2cc1O
inactive: dose: 100.0 mg/kg/injection, schedule: Q04DX002 (ip), vehicle: Klucel (hydroxypropylcellulose) (HPC) 115 % of control | dose: 200.0 mg/kg/injection, schedule: Q04DX002 (ip), vehicle: Klucel (hydroxypropylcellulose) (HPC) 106 % of control | dose: 400.0 mg/kg/injection, schedule: Q04DX002 (ip), vehicle: Klucel (hydroxypropylcellulose) (HPC) 103 % of control

Clc1ccc(-n2cnn3c(-c4ccccc4)ncc23)cc1
inactive: dose: 100.0 mg/kg/injection, schedule: Q04DX002 (ip), vehicle: saline with Tween-80 90 % of control | dose: 200.0 mg/kg/injection, schedule: Q04DX002 (ip), vehicle: saline with Tween-80 87 % of control | dose: 400.0 mg/kg/injection, schedule: Q04DX002 (ip), vehicle: saline with Tween-80 93 % of control

CCC(C)NC(=O)C(C)O (stereo not given)
inactive: dose: 50.0 mg/kg/injection, schedule: Q01DX005 (ip), vehicle: saline 95 % of control | dose: 100.0 mg/kg/injection, schedule: Q01DX005 (ip), vehicle: saline 99 % of control | dose: 200.0 mg/kg/injection, schedule: Q01DX005 (ip), vehicle: saline 97 % of control

COc1cc2cc(-c3cc(OC)c(OC)c(OC)c3)c3c(c2cc1OC)CNC3
inactive: dose: 3.12 mg/kg/injection, schedule: Q04DX003 (ip), vehicle: saline with Tween-80 100 % of control | dose: 6.25 mg/kg/injection, schedule: Q04DX003 (ip), vehicle: saline with Tween-80 105 % of control | dose: 12.5 mg/kg/injection, schedule: Q04DX003 (ip), vehicle: saline with Tween-80 100 % of control | dose: 25.0 mg/kg/injection, schedule: Q04DX003 (ip), vehicle: saline with Tween-80 98 % of control | dose: 50.0 mg/kg/injection, schedule: Q04DX003 (ip), vehicle: saline with Tween-80 97 % of control

O=C(Nc1ccccc1)Nc1nnnc2ccccc12
inactive: dose: 100.0 mg/kg/injection, schedule: Q01DX001 (ip), vehicle: saline with Tween-80 100 % of control | dose: 200.0 mg/kg/injection, schedule: Q01DX001 (ip), vehicle: saline with Tween-80 95 % of control | dose: 400.0 mg/kg/injection, schedule: Q01DX001 (ip), vehicle: saline with Tween-80 90 % of control

[Cl][Sn]([c]1cccc2ccccc12)[c]1cccc2ccccc12
inactive: dose: 1.56 mg/kg/injection, schedule: Q01DX005 (ip), vehicle: Klucel (hydroxypropylcellulose) (HPC) 101 % of control | dose: 3.12 mg/kg/injection, schedule: Q01DX005 (ip), vehicle: Klucel (hydroxypropylcellulose) (HPC) 120 % of control | dose: 6.25 mg/kg/injection, schedule: Q01DX005 (ip), vehicle: Klucel (hydroxypropylcellulose) (HPC) 124 % of control | dose: 12.5 mg/kg/injection, schedule: Q01DX005 (ip), vehicle: Klucel (hydroxypropylcellulose) (HPC) 109 % of control

O=C1C=C\C(=C/C=C\C=C2/C=CC(=O)O2)O1
inactive: [1] 93 % of control | [2] 100 % of control | [3] 96 % of control

c1ccc2cc3c(cc2c1)Cn1c-3nc2ccccc21
inactive: dose: 200.0 mg/kg/injection, schedule: Q04DX003 (ip), vehicle: saline with Tween-80 92 % of control | dose: 400.0 mg/kg/injection, schedule: Q04DX003 (ip), vehicle: saline with Tween-80 100 % of control

Cc1ccc(C)c(NC(=O)Nc2ccccc2C(N)=O)c1
inactive: dose: 50.0 mg/kg/injection, schedule: Q01DX009 (ip), vehicle: Klucel (hydroxypropylcellulose) (HPC) 91 % of control | dose: 100.0 mg/kg/injection, schedule: Q01DX009 (ip), vehicle: Klucel (hydroxypropylcellulose) (HPC) 113 % of control | dose: 200.0 mg/kg/injection, schedule: Q01DX009 (ip), vehicle: Klucel (hydroxypropylcellulose) (HPC) 104 % of control

CCCCN(CCCC)CCCCCCCC(O)c1cc2ccccc2c2ccccc12 (stereo not given)
inactive: dose: 50.0 mg/kg/injection, schedule: Q01DX005 (ip), vehicle: saline + Tween-80 + alcohol 113 % of control | dose: 100.0 mg/kg/injection, schedule: Q01DX005 (ip), vehicle: saline + Tween-80 + alcohol 110 % of control

CC(=O)ON=C(C1CC1)C1CC1
inactive: dose: 37.5 mg/kg/injection, schedule: Q01DX009 (ip), vehicle: other 100 % of control | dose: 75.0 mg/kg/injection, schedule: Q01DX009 (ip), vehicle: other 106 % of control | dose: 150.0 mg/kg/injection, schedule: Q01DX009 (ip), vehicle: other 100 % of control | dose: 300.0 mg/kg/injection, schedule: Q01DX009 (ip), vehicle: other 110 % of control

CCC(C)N=C1NS(=O)(=O)c2ccccc21 (stereo not given)
inactive: [4] 105 % of control | [5] 105 % of control | [6] 102 % of control

Cc1cc(Cl)ccc1NC(=O)NC(C)(C)COC(=O)Nc1cccc(Cl)c1
inactive: dose: 15.0 mg/kg/injection, schedule: Q01DX005 (ip), vehicle: saline with Tween-80 99 % of control | dose: 30.0 mg/kg/injection, schedule: Q01DX005 (ip), vehicle: saline with Tween-80 94 % of control | dose: 60.0 mg/kg/injection, schedule: Q01DX005 (ip), vehicle: saline with Tween-80 90 % of control | dose: 120.0 mg/kg/injection, schedule: Q01DX005 (ip), vehicle: saline with Tween-80 86 % of control

COc1ccc(/C=C2/C(=O)N(c3ccccc3)N=C2C)c(OC)c1
inactive: dose: 30.0 mg/kg/injection, schedule: Q01DX005 (ip), vehicle: Klucel (hydroxypropylcellulose) (HPC) 91 % of control | dose: 60.0 mg/kg/injection, schedule: Q01DX005 (ip), vehicle: Klucel (hydroxypropylcellulose) (HPC) 88 % of control and 95 % of control | dose: 120.0 mg/kg/injection, schedule: Q01DX005 (ip), vehicle: Klucel (hydroxypropylcellulose) (HPC) 94 % of control | dose: 240.0 mg/kg/injection, schedule: Q01DX005 (ip), vehicle: Klucel (hydroxypropylcellulose) (HPC) 86 % of control

N#CC(C#N)=C1SCCCS1
inactive: dose: 50.0 mg/kg/injection, schedule: Q01DX009 (ip), vehicle: saline 105 % of control | dose: 100.0 mg/kg/injection, schedule: Q01DX009 (ip), vehicle: saline 95 % of control | dose: 200.0 mg/kg/injection, schedule: Q01DX009 (ip), vehicle: saline 98 % of control

CCCCCCCCCCCCS(=O)CC(C)O (stereo not given)
inactive: dose: 25.0 mg/kg/injection, schedule: Q01DX009 (ip), vehicle: saline + Tween-80 + alcohol 99 % of control and 101 % of control | dose: 50.0 mg/kg/injection, schedule: Q01DX009 (ip), vehicle: saline + Tween-80 + alcohol 95 % of control and 97 % of control | dose: 100.0 mg/kg/injection, schedule: Q01DX009 (ip), vehicle: saline + Tween-80 + alcohol 92 % of control and 95 % of control | dose: 200.0 mg/kg/injection, schedule: Q01DX009 (ip), vehicle: saline + Tween-80 + alcohol 99 % of control and 105 % of control | dose: 400.0 mg/kg/injection, schedule: Q01DX009 (ip), vehicle: saline + Tween-80 + alcohol 99 % of control and 107 % of control

O=[N+]([O-])c1cc(S(=O)(=O)NCc2ccco2)ccc1N/N=C/c1ccccn1
inactive: [7] 86 % of control

Cc1nc2c(=O)nc3n(c2nc1C)CCS3
inactive: dose: 100.0 mg/kg/injection, schedule: Q01DX001 (ip), vehicle: saline 104 % of control | dose: 200.0 mg/kg/injection, schedule: Q01DX001 (ip), vehicle: saline 102 % of control | dose: 400.0 mg/kg/injection, schedule: Q01DX001 (ip), vehicle: saline 104 % of control

CC1=NN(C(=O)c2cccnc2)C(=O)C1N=Nc1ccc(S(=O)(=O)Nc2nc(C)cc(C)n2)cc1 (stereo not given)
inactive: [8] 101 % of control | [9] 99 % of control | [7] 99 % of control

CCN=C1NS(=O)(=O)c2ccccc21
inactive: [4] 100 % of control | [5] 97 % of control | [6] 100 % of control

CCCCC(CC)COC1CCS(=O)(=O)C1 (stereo not given)
inactive: [8] 100 % of control | [9] 101 % of control | [7] 95 % of control

— PubChem BioAssay AID330 (DTP/NCI, 2004)
